# pKd: −log10 of the molar value.
# Legend:
# [1] = molecular target: S-RBD-ACE2 protein complex (Homo sapiens, UniProt Q9BYF1); type: binding, SARS-CoV-2
# [2] = molecular target: SARS-CoV2 S2 ECD (Severe acute respiratory syndrome coronavirus 2, UniProt P0DTC2); assay: biochemical; type: binding, SARS-CoV-2
# [3] = molecular target: SARS-CoV-2 S1 + S2 ECD (Severe acute respiratory syndrome coronavirus 2, UniProt P0DTC2); assay: biochemical; type: binding
# [4] = molecular target: human ACE2 (Homo sapiens, UniProt Q9BYF1); assay: Surface plasmon resonance assay, human ACE2 chip; type: binding; conditions: SPR, human ACE2 extracellular domain, pH 4.5, 25 °C; for pKd: KD
# human ACE2, sequence (Q9BYF1 18-740): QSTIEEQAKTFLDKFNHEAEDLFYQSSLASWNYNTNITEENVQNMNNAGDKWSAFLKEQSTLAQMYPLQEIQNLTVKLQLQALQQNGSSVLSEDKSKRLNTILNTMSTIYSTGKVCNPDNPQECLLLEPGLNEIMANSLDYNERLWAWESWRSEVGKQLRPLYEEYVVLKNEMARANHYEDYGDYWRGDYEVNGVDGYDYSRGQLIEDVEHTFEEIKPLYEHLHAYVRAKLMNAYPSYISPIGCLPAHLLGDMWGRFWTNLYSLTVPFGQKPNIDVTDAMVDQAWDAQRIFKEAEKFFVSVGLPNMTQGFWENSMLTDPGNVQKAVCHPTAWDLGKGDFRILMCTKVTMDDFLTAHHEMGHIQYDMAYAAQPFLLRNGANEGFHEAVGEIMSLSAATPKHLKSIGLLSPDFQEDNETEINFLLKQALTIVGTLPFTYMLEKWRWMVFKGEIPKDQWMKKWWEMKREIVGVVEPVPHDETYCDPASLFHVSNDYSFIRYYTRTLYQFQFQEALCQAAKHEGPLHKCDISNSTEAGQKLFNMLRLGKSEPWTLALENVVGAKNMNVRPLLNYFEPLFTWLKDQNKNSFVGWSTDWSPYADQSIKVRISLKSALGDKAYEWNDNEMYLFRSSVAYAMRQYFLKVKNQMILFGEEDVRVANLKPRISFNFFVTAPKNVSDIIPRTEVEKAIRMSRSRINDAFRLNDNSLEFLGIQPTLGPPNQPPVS
# S-RBD-ACE2 protein complex, sequence (Q9BYF1 18-740, one chain of several): as the sequence (Q9BYF1 18-740) above
Compound,Tm Mean of RBD-ACE2 complex [1],pKd [4],further results
[Ca+2].[Cl-].[Cl-] [CaCl2],51.6 °C,–,–
CC1=NN(c2ccc(C)c(C)c2)C(=O)/C1=N\Nc1cccc(-c2cccc(C(=O)O)c2)c1O [Eltrombopag],49.9 °C,6.08,pKd ([2]; KD): 5.66; pKd [3]: 5.70; Rmax [4]: 21.95 RU
"CC1(C)[C@@H](O[C@H]2O[C@H](C(=O)O)[C@@H](O)[C@H](O)[C@H]2O[C@@H]2O[C@H](C(=O)O)[C@@H](O)[C@H](O)[C@H]2O)CC[C@]2(C)[C@H]3C(=O)C=C4[C@@H]5C[C@@](C)(C(=O)O)CC[C@]5(C)CC[C@@]4(C)[C@]3(C)CC[C@@H]12 [Glycyrrhizate, glycyrrhizate]",–,2.31,Rmax ([4]; listed as glycyrrhizate): 557.8 RU
"CC1(C)[C@@H](O[C@H]2O[C@H](C(=O)O)[C@@H](O)[C@H](O)[C@H]2O[C@@H]2O[C@H](C(=O)O)[C@@H](O)[C@H](O)[C@H]2O)CC[C@]2(C)[C@H]3C(=O)C=C4[C@@H]5C[C@@](C)(C(=O)O)CC[C@]5(C)CC[C@@]4(C)[C@]3(C)CC[C@@H]12 [Glycyrrhizin, glycyrrhizin]",–,2.74,Rmax ([4]; listed as glycyrrhizin): 499.4 RU
[Cl-].[Cl-].[Mg+2] [MgCl2],51.6 °C,–,–
Glycyrrhizic acid,–,–,Rmax ([2]; pH 5.5): 623.7 RU
